# Test results taken from patent US9937183B2, “Antimicrobial compounds and methods of making and using the same” (priority 2013, dated 2018).
# Where two headings read alike, the source gives them in different places.
# Tests used:
# Format in all cases: cell-based
# K. pneumoniae 1705949 = assay: MIC, microtiter-based liquid assay (CLSI); conditions: Klebsiella pneumoniae, MDR strain
# [1] = test system: E. faecium A6349 VanA + LNZ-R; assay: MIC, microtiter-based liquid assay (CLSI); conditions: Enterococcus faecium
# S. aureus 11540 MRSA = assay: MIC, microtiter-based liquid assay (CLSI); conditions: Staphylococcus aureus
# P. aeruginosa 1705886 = assay: MIC, microtiter-based liquid assay (CLSI); conditions: Pseudomonas aeruginosa
# [2] = test system: S. pneumoniae 02J1175 Mef(A); assay: MIC, microtiter-based liquid assay (CLSI); conditions: Streptococcus pneumoniae
# F. tularensis = assay: microbe, parasite or virus in culture; conditions: Francisella tularensis; for MIC50: read-out: F. tularensis MIC50; for MIC90: read-out: F. tularensis MIC90; for MIC: read-out: F. tularensis MIC Range
# A. baumannii 1705936 = assay: MIC, microtiter-based liquid assay (CLSI); conditions: Acinetobacter baumannii, MDR strain
# P. aeruginosa 1705904 = assay: MIC, microtiter-based liquid assay (CLSI); conditions: Pseudomonas aeruginosa, MDR strain
# E. coli ATCC25922 = assay: MIC, microtiter-based liquid assay (CLSI); conditions: Escherichia coli
# Y. pestis = assay: microbe, parasite or virus in culture; conditions: Yersinia pestis; for MIC50: read-out: Y. pestis MIC50; for MIC90: read-out: Y. pestis MIC90; for MIC: read-out: Y. pestis MIC Range
# B. pseudomallei = assay: microbe, parasite or virus in culture; conditions: Burkholderia pseudomallei; for MIC50: read-out: B. pseudomallei MIC50; for MIC90: read-out: B. pseudomallei MIC90; for MIC: read-out: B. pseudomallei MIC Range
# E. coli CAG12184 TolC = assay: MIC, microtiter-based liquid assay (CLSI); conditions: Escherichia coli, CAG12184TOLC
# K. pneumoniae 1705966 = assay: MIC, microtiter-based liquid assay (CLSI); conditions: Klebsiella pneumoniae
# P. aeruginosa ATCC27853 = assay: MIC, microtiter-based liquid assay (CLSI); conditions: Pseudomonas aeruginosa
# E. coli MG1655 parent = assay: MIC, microtiter-based liquid assay (CLSI); conditions: Escherichia coli
# A. baumannii 1705943 = assay: MIC, microtiter-based liquid assay (CLSI); conditions: Acinetobacter baumannii
# B. mallei = assay: microbe, parasite or virus in culture; conditions: Burkholderia mallei; for MIC50: read-out: B. mallei MIC50; for MIC90: read-out: B. mallei MIC90; for MIC: read-out: B. mallei MIC Range
# E. coli 1705878 = assay: MIC, microtiter-based liquid assay (CLSI); conditions: Escherichia coli, MDR strain
# B. anthracis = assay: microbe, parasite or virus in culture; conditions: Bacillus anthracis; for MIC50: read-out: B. anthracis MIC50; for MIC90: read-out: B. anthracis MIC90; for MIC: read-out: B. anthracis MIC Range
# [3] = ATCC25922, read-out: MIC E. coli ATCC25922 + 50% HS
# [4] = ATCC25922, read-out: MIC E. coli ATCC25922
Structure (SMILES),MIC (K. pneumoniae 1705949),MIC [1],MIC (S. aureus 11540 MRSA),MIC (P. aeruginosa 1705886),MIC [2],MIC50 (F. tularensis),MIC90 (F. tularensis),MIC (F. tularensis),MIC (A. baumannii 1705936),MIC (P. aeruginosa 1705904),MIC (E. coli ATCC25922; [3]),MIC (E. coli ATCC25922; [4]),MIC50 (Y. pestis),MIC90 (Y. pestis),MIC (Y. pestis),MIC50 (B. pseudomallei),MIC90 (B. pseudomallei),MIC (E. coli CAG12184 TolC),MIC (K. pneumoniae 1705966),MIC (P. aeruginosa ATCC27853),other results
C[C@H](N)CCCc1cc(OC(F)(F)F)c(F)c(-c2cc3cn(-c4ccc([C@H](C)NCCCNC(=N)N)cc4)c(=O)nc3[nH]2)c1 [Compound 3],1 µg/mL,2 µg/mL,0.25 µg/mL,4 µg/mL,0.25 µg/mL,≤ 0.03 µg/mL,0.12 µg/mL,0.03 to 1 µg/mL,2 µg/mL,8 µg/mL,0.5 µg/mL,0.25 µg/mL,0.25 µg/mL,0.5 µg/mL,0.03 to 1 µg/mL,2 µg/mL,4 µg/mL,0.25 µg/mL,0.25 µg/mL,8 µg/mL,MIC (B. pseudomallei): 0.5 to 8 µg/mL; MIC (E. coli MG1655 parent): 0.5 µg/mL; MIC (A. baumannii 1705943): 0.25 µg/mL; MIC50 (B. mallei): 0.06 µg/mL; MIC90 (B. mallei): 0.12 µg/mL; MIC (B. mallei): 0.03 to 0.5 µg/mL; MIC (E. coli 1705878): 0.5 µg/mL; MIC50 (B. anthracis): 0.25 µg/mL; MIC90 (B. anthracis): 0.25 µg/mL; MIC (B. anthracis): 0.03 to 2 µg/mL
C=C[C@H](NCCCNC(=N)N)c1ccc(-n2cc3cc(-c4cc(CCC[C@H](C)N)cc(Cl)c4F)[nH]c3nc2=O)cc1 [Compound 10],0.5 µg/mL,0.5 µg/mL,0.25 µg/mL,2 µg/mL,0.25 µg/mL,≤ 0.03 µg/mL,0.06 µg/mL,0.03 to 4 µg/mL,2 µg/mL,4 µg/mL,0.25 µg/mL,0.25 µg/mL,≤ 0.03 µg/mL,0.06 µg/mL,0.03 to 0.25 µg/mL,1 µg/mL,2 µg/mL,0.25 µg/mL,0.25 µg/mL,4 µg/mL,MIC (B. pseudomallei): 0.25 to 8 µg/mL; MIC (E. coli MG1655 parent): 0.25 µg/mL; MIC (A. baumannii 1705943): 0.25 µg/mL; MIC50 (B. mallei): ≤ 0.03 µg/mL; MIC90 (B. mallei): 0.12 µg/mL; MIC (B. mallei): 0.03 to 0.25 µg/mL; MIC (E. coli 1705878): 0.5 µg/mL; MIC50 (B. anthracis): 0.12 µg/mL; MIC90 (B. anthracis): 0.25 µg/mL; MIC (B. anthracis): 0.03 to 0.25 µg/mL
C[C@@H](N)CCCc1cc(Cl)c(F)c(-c2cc3cn(-c4ccc(CNCCCNC(=N)N)cc4)c(=O)nc3[nH]2)c1 [Compound 1],2 µg/mL,4 µg/mL,0.125 µg/mL,2 µg/mL,0.25 µg/mL,≤ 0.03 µg/mL,≤ 0.03 µg/mL,0.03 to 0.5 µg/mL,4 µg/mL,8 µg/mL,0.125 µg/mL,0.125 µg/mL,0.12 µg/mL,0.25 µg/mL,0.03 to 0.5 µg/mL,4 µg/mL,4 µg/mL,0.06 µg/mL,0.25 µg/mL,4 µg/mL,MIC (B. pseudomallei): 0.5 to 16 µg/mL; MIC (E. coli MG1655 parent): 0.5 µg/mL; MIC (A. baumannii 1705943): 0.25 µg/mL; MIC50 (B. mallei): ≤ 0.03 µg/mL; MIC90 (B. mallei): 0.06 µg/mL; MIC (B. mallei): 0.03 to 0.25 µg/mL; MIC (E. coli 1705878): 1 µg/mL; MIC50 (B. anthracis): 0.12 µg/mL; MIC90 (B. anthracis): 0.25 µg/mL; MIC (B. anthracis): 0.03 to 0.25 µg/mL
CCc1cc(CCC[C@H](C)N)cc(-c2cc3cn(-c4ccc(CNCCCNC(=N)N)cc4)c(=O)nc3[nH]2)c1F [Compound 2],0.5 µg/mL,2 µg/mL,0.25 µg/mL,2 µg/mL,0.125 µg/mL,≤ 0.03 µg/mL,≤ 0.03 µg/mL,0.03 to 0.25 µg/mL,4 µg/mL,8 µg/mL,0.25 µg/mL,0.125 µg/mL,0.12 µg/mL,0.25 µg/mL,0.03 to 0.25 µg/mL,2 µg/mL,4 µg/mL,0.125 µg/mL,0.25 µg/mL,4 µg/mL,MIC (B. pseudomallei): 0.5 to 8 µg/mL; MIC (E. coli MG1655 parent): 0.25 µg/mL; MIC (A. baumannii 1705943): 0.25 µg/mL; MIC50 (B. mallei): ≤ 0.03 µg/mL; MIC90 (B. mallei): 0.06 µg/mL; MIC (B. mallei): 0.03 to 0.25 µg/mL; MIC (E. coli 1705878): 1 µg/mL; MIC50 (B. anthracis): 0.12 µg/mL; MIC90 (B. anthracis): 0.12 µg/mL; MIC (B. anthracis): 0.03 to 1 µg/mL
C[C@H](N)CCCc1cc(Cl)c(F)c(-c2cc3cn(-c4ccc([C@H](N)CCCCNC(=N)N)cc4)c(=O)nc3[nH]2)c1 [Compound 16],2 µg/mL,2 µg/mL,0.25 µg/mL,4 µg/mL,0.25 µg/mL,≤ 0.03 µg/mL,0.12 µg/mL,0.03 to 1 µg/mL,2 µg/mL,8 µg/mL,0.125 µg/mL,0.125 µg/mL,0.12 µg/mL,0.25 µg/mL,0.03 to 0.5 µg/mL,4 µg/mL,8 µg/mL,0.06 µg/mL,0.25 µg/mL,4 µg/mL,MIC (B. pseudomallei): 2 to 16 µg/mL; MIC (E. coli MG1655 parent): 0.25 µg/mL; MIC (A. baumannii 1705943): 0.125 µg/mL; MIC50 (B. mallei): ≤ 0.03 µg/mL; MIC90 (B. mallei): 0.06 µg/mL; MIC (B. mallei): 0.03 to 0.06 µg/mL; MIC (E. coli 1705878): 0.5 µg/mL; MIC50 (B. anthracis): ≤ 0.03 µg/mL; MIC90 (B. anthracis): 0.06 µg/mL; MIC (B. anthracis): 0.03 to 0.12 µg/mL
C[C@H](NCCCNC(=N)N)c1ccc(-n2cc3cc(-c4cc(CCC[C@@H](N)CO)cc(Cl)c4F)[nH]c3nc2=O)cc1 [Compound 5],0.5 µg/mL,1 µg/mL,0.125 µg/mL,4 µg/mL,0.125 µg/mL,≤ 0.03 µg/mL,≤ 0.03 µg/mL,0.03 to 0.25 µg/mL,2 µg/mL,8 µg/mL,0.25 µg/mL,0.125 µg/mL,0.25 µg/mL,0.5 µg/mL,0.03 to 2 µg/mL,16 µg/mL,16 µg/mL,0.06 µg/mL,0.125 µg/mL,4 µg/mL,MIC (E. coli MG1655 parent): 0.5 µg/mL; MIC (A. baumannii 1705943): 0.25 µg/mL; MIC50 (B. mallei): 0.06 µg/mL; MIC90 (B. mallei): 0.25 µg/mL; MIC (B. mallei): 0.03 to 0.5 µg/mL; MIC (E. coli 1705878): 2 µg/mL; MIC50 (B. anthracis): 0.12 µg/mL; MIC90 (B. anthracis): 0.12 µg/mL; MIC (B. anthracis): 0.03 to 2 µg/mL
C[C@H](NCCCNC(=N)N)c1ccc(-n2cc3cc(-c4cc(CCC5(CN)CC5)cc(Cl)c4F)[nH]c3nc2=O)cc1 [Compound 4],1 µg/mL,4 µg/mL,0.25 µg/mL,2 µg/mL,0.5 µg/mL,≤ 0.03 µg/mL,≤ 0.03 µg/mL,0.03 to 1 µg/mL,4 µg/mL,4 µg/mL,0.5 µg/mL,0.125 µg/mL,0.25 µg/mL,0.25 µg/mL,0.03 to 0.5 µg/mL,2 µg/mL,4 µg/mL,0.25 µg/mL,0.25 µg/mL,4 µg/mL,MIC (B. pseudomallei): 0.5 to 8 µg/mL; MIC (E. coli MG1655 parent): 0.25 µg/mL; MIC (A. baumannii 1705943): 0.25 µg/mL; MIC50 (B. mallei): ≤ 0.03 µg/mL; MIC90 (B. mallei): 0.12 µg/mL; MIC (B. mallei): 0.03 to 0.5 µg/mL; MIC (E. coli 1705878): 0.5 µg/mL; MIC50 (B. anthracis): 0.5 µg/mL; MIC90 (B. anthracis): 0.5 µg/mL; MIC (B. anthracis): 0.06 to 4 µg/mL
C[C@H](N)CCCc1cc(-c2cc3cn(-c4ccc(CNCCCNC(=N)N)cc4)c(=O)nc3[nH]2)c(F)c(Cl)c1F [Compound 13],0.5 µg/mL,0.5 µg/mL,0.25 µg/mL,2 µg/mL,0.25 µg/mL,≤ 0.03 µg/mL,≤ 0.03 µg/mL,0.03 to 0.5 µg/mL,4 µg/mL,4 µg/mL,0.25 µg/mL,0.25 µg/mL,0.06 µg/mL,0.12 µg/mL,0.03 to 0.25 µg/mL,4 µg/mL,8 µg/mL,0.25 µg/mL,0.25 µg/mL,2 µg/mL,MIC (B. pseudomallei): 0.5 to 16 µg/mL; MIC (E. coli MG1655 parent): 0.25 µg/mL; MIC (A. baumannii 1705943): 0.25 µg/mL; MIC50 (B. mallei): ≤ 0.03 µg/mL; MIC90 (B. mallei): 0.06 µg/mL; MIC (B. mallei): 0.03 to 0.25 µg/mL; MIC (E. coli 1705878): 0.25 µg/mL; MIC50 (B. anthracis): ≤ 0.03 µg/mL; MIC90 (B. anthracis): 0.12 µg/mL; MIC (B. anthracis): 0.03 to 0.12 µg/mL
